Measured values as given in patent publication US20100041662A1, “Heterocyclic compounds as antiinflammatory agents” (priority 2006, published 2010).

T1: human ALK5 (ALK5 T204D kinase domain) (Homo sapiens, UniProt P36897, T204D)
T1 construct: The kinase domain of human ALK5 (amino acids 200-503) is fused to an N-terminal histidine tag; made in house; host or cells: insect cells (baculovirus)
T1 sequence (P36897 200-503 T204D): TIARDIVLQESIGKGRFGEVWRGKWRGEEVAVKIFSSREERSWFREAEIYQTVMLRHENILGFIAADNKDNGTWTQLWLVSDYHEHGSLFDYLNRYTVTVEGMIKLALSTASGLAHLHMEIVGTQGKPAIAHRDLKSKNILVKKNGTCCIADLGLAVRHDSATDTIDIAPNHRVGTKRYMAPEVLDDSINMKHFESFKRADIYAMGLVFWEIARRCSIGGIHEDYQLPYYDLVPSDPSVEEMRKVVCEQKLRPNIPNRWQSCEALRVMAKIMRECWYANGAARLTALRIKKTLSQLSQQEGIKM


Key:
[1] = target: T1, human ALK5 (ALK5 T204D kinase domain); assay: ALK5 kinase activity, [33P] phosphate incorporation into casein; type: biochemical; details: casein substrate
Procedure: The kinase activity of ALK5 is assessed by measuring radiolabelled phosphate [33P] incorporation in to the generic substrate, casein. The kinase domain of human ALK5 (amino acids 200-503) is fused to an N-terminal histidine tag. The kinase activity of ALK5 is rendered constitutive via point mutation at amino acid 204 (threonine to aspartate modification, ALK5 T204D) and the kinase construct is engineered to be expressed from a baculovirus expression construct in insect cells. The purified, recombinantly-expressed histidine-tagged ALK5 T204D protein is dissolved at 5.4 mg/ml in 50 mM Tris-HCl pH 8.0, 150 mM NaCl, 5 mM DTT. ALK5 T204D is dissolved to 2.5 μg/ml in assay buffer (Assay buffer: 20 mM Tris-HCl pH 7.4, 10 mM MgCl2, 2 mM MnCl2) on the day of use.
Test compounds and reference compounds are dissolved in assay buffer without DTT containing 5% (v/v) DMSO. Stock solutions of test and reference compounds are diluted in assay buffer with DTT (1.25 mM) containing 4.5% (v/v) DMSO. 10 μl of test or reference compound are added to the appropriate wells of 96 well U-bottomed plate. Total enzyme activity is determined by measuring ALK5 T204D activity in the absence of ALK5 kinase inhibitor reference compounds. Non-specific binding (NSB) is determined by measuring the activity of ALK5 T204D in the presence of ALK5 kinase inhibitor reference compounds. 10 μl of dephosphorylated casein stock solution (dephosphorylated casein is dissolved in ddH2O at 20 mg/ml) is added per well (200 μg/well final assay concentration). 20 μl of ALK5 T204D (2.5 μg/ml solution) is added per well (50 ng/well final assay concentration). The plates are left to incubate at room temperature for 10 minutes.
10 μl of ATP mix is added to the well to initiate the reaction (0.66 nM [^33P]ATP/1 μM unlabelled ATP/well final assay concentration). The ATP mix is prepared as follows, unlabelled ATP (3 mM) is dissolved in ddH2O and pH adjusted to 7.4. The stock concentration of [^33P]ATP is 10 μCi/μl. The appropriate volume of [^33P]ATP is added to unlabelled ATP solution such that the final assay concentration per well is 0.1 μCi. Following addition of the ATP mix, the plates are incubated at room temperature for 50 minutes. The kinase reaction is terminated by the addition of 50 μL Stop Buffer (20 mM Tris-HCl pH 7.4, 10 mM EDTA).
75 μl/well from the reaction plate is transferred to a Multiscreen-IP plate (MultiScreen-IP plates are prepared by added 50 μL of 70% (v/v) ethanol per well and incubated for 5 minutes at room temperature. The ethanol is removed by aspiration via a MultiScreen HTS Vacuum Manifold unit (Millipore, Cat no: MSVMHT500). The plates are washed twice by adding 200 μl/well ddH2O). The MultiScreen-IP plate is incubated at room temperature for 30 minutes to allowing binding of casein to the plate. The MultiScreen-IP plates are washed three times by adding 200 μl/well 100 mM phosphoric acid solution and the gasket is carefully removed from the back of the MultiScreen-IP plate and the plate dried in the oven for 30 minutes. The MultiScreen-IP plate is backsealed, 50 μL of Microscint™20 is added, then the plates are topsealed and radiolabelled casein detected and quantified on a TopCount™ plate-reader using the ^33P scintillation protocol.

[2] = target: T2, JAK2 (GST-JAK2(808-1132)) (Homo sapiens, UniProt O60674); assay: JAK/TYK-kinase family profiling, Caliper mobility shift assay; type: biochemical; details: 20 μM ATP, JAK3tide substrate
T2 construct: GST-JAK2(808-1132) was purchased from Invitrogen (Carlsbad, USA, #4288); purchased Invitrogen (Carlsbad, USA) #4288
T2 sequence (O60674 808-1132): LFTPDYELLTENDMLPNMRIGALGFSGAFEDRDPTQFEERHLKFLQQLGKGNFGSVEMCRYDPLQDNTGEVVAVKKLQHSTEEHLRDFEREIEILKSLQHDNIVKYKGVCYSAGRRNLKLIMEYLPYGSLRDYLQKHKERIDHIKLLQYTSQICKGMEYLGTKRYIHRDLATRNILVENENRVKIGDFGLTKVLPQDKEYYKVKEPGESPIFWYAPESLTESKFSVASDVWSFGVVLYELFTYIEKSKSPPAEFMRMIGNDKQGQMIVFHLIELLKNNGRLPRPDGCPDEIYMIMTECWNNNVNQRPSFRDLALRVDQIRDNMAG
Source text: All four kinases of the JAK/TYK-kinase family were used as purified recombinant GST-fusion proteins, containing the active kinase domains. GST-JAK1(866-1154), GST-JAK3(811-1124), and GST-TYK2(888-1187) were expressed and purified by affinity chromatography at the EPK biology unit. GST-JAK2(808-1132) was purchased from Invitrogen (Carlsbad, USA, #4288).
The kinase assays were based on the Caliper mobility shift assay using the LabChip 3000 systems. This technology is similar to capillary electrophoresis and uses charge driven separation of substrate and product in a microfluidic chip.
All kinase reactions were performed in 384 well microtiter plates in a total reaction volume of 18 μl. The assay plates were prepared with 0.1 μl per well of test compound in the appropriate test concentration, as described under the section “preparation of compound dilutions”. The reactions were started by combining 9 μl of substrate mix (consisting of peptide and ATP) with 9 μl of kinase dilution. The reactions were incubated for 60 minutes at 30° C. and stopped by adding 70 μl of stop buffer (100 mM Hepes, 5% DMSO, 0.1% Coating reagent, 10 mM EDTA, 0.015% Brij 35).
Fluorescently labeled synthetic peptides were used as substrates in all reactions. A peptide derived from the sequence of IRS-1 (IRS-1 peptide, FITC-Ahx-KKSRGDYMTMQIG-NH2) was used for JAK1 and TYK2 and a peptide named JAK3tide (FITC-GGEEEEYFELVKKKK-NH2) for JAK2 and JAK3. Specific assay conditions are described in Table 1:
The terminated reactions were transferred to the Caliper LabChip 3000 reader and the turnover of each reaction was measured by determining the substrate/product ratio.
Test compounds were dissolved in DMSO (10 mM) and transferred into 1.4 mL flat bottom or V-shaped Matrix tubes carrying a unique 2D matrix chip by individual compound hubs. The numbers of these chips were distinctively linked to the individual compound identification numbers. The stock solutions were stored at −20° C. if not used immediately. For the test procedure the vials were defrosted and identified by a scanner whereby a working sheet was generated that guided the subsequent working steps.
Compound dilutions were made in 96 well plates. This format enabled the assay of maximally 40 individual test compounds at 8 concentrations (single points) including 4 reference compounds. The dilution protocol included the production of pre-dilution plates, master plates and assay plates:
Pre-dilution plates: 96 polypropylene well plates were used as pre-dilution plates. A total of 4 pre-dilution plates were prepared including 10 test compounds each on the plate positions A1-A10, one standard compound at A11 and one DMSO control at A12. All dilution steps were done on a HamiltonSTAR robot. Master plates: 100 μL of individual compound dilutions including standard compound and controls of the 4 “pre-dilution plates” were transferred into a 384 “master plate” including the following concentrations 1′820, 564, 182, 54.6, 18.2, 5.46, 1.82 and 0.546 μM, respectively in 90% of DMSO. Assay plates: Identical assay plates were then prepared by pipetting […] each of compound dilutions of the master plates into 384-well “assay plates”. In the following the compounds were mixed with 9 μL of assays components plus 9 μL enzyme corresponding to a 1:181 dilution steps enabling the final concentration of 10, 3.0, 1.0, 0.3, 0.1, 0.03, 0.01 and 0.003 μM, respectively. The preparation of the master plates were handled by the Matrix PlateMate Plus robot and replication of assay plates by the HummingBird robot.

[3] = tested on: bleomycin-induced pulmonary fibrosis; details: bleomycin-treated rats; cited from earlier work

| Molecule | IC50 [1] | IC50 [2] | other results |
| --- | --- | --- | --- |
| O[C@H]1CC[C@H](Nc2ccc3ncc(-c4ccnc(-c5ccncc5)c4)n3n2)CC1 [Example 1.1, 4-(3-[2,4′]Bipyridinyl-4-yl-imidazo[1,2-b]pyridazin-6-ylamino)-cyclohexanol] | 42 nM | – | – |
| Cc1ccc(-c2cc(-c3cnc4ccc(NC5CCC(O)CC5)nn34)ccn2)s1 (stereo not drawn) [Example 1.2, 4-{3-[2-(5-Methyl-thiophen-2-yl)-pyridin-4-yl]-imidazo[1,2-b]pyridazin-6-ylamino}-cyclohexanol] | 36 nM | – | – |
| OC1CCC(Nc2ccc3ncc(-c4ccnc(-c5ccoc5)c4)n3n2)CC1 (stereo not drawn) [Example 1.3, 4-[3-(2-Furan-3-yl-pyridin-4-yl)-imidazo[1,2-b]pyridazin-6-ylamino]-cyclohexanol] | 5 nM | – | – |
| Cn1cc(-c2cc(-c3cnc4ccc(NC5CCC(O)CC5)nn34)ccn2)cn1 (stereo not drawn) [Example 1.4, 4-{3-[2-(1-Methyl-1H-pyrazol-4-yl)-pyridin-4-yl]-imidazo[1,2-b]pyridazin-6-ylamino}-cyclohexanol] | 150 nM | – | – |
| OC1CCC(Nc2ccc3ncc(-c4ccnc(C5CC5)c4)n3n2)CC1 (stereo not drawn) [Example 1.6, 4-[3-(2-Cyclopropyl-pyridin-4yl)-imidazo[1,2-b]pyridazin-6-ylamino]-cyclohexanol] | 15 nM | – | – |
| OC1CCC(Nc2ccc3ncc(-c4cccc(-n5cccn5)c4)n3n2)CC1 (stereo not drawn) [Example 1.7, 4-[3-(3-Pyrazol-1-yl-phenyl)-imidazo[1,2-b]pyridazin-6-ylamino]-cyclohexanol] | 5 nM | – | – |
| follistatin: an antagonist of activin signalling (protein, UniProt P19883 30-344, looked up) Follistatin: GNCWLRQAKNGRCQVLYKTELSKEECCSTGRLSTSWTEEDVNDNTLFKWMIFNGGAPNCIPCKETCENVDCGPGKKCRMNKKNKPRCVCAPDCSNITWKGPVCGLDGKTYRNECALLKARCKEQPELEVQYQGRCKKTCRDVFCPGSSTCVVDQTNNAYCVTCNRICPEPASSEQYLCGNDGVTYSSACHLRKATCLLGRSIGLAYEGKCIKAKSCEDIQCTGGKKCLWDFKVGRGRCSLCDELCPDSKSDEPVCASDNATYASECAMKEAACSSGVLLEVKHSGSCNSISEDTEEEEEDEDQDYSFPISSILEW | – | – | destruction of lung architecture [3]: ameliorated; lung fibrosis [3]: attenuated; number of infiltrating cells [3]: markedly reduced; number of macrophages and neutrophils in bronchoalveolar lavage [3]: significantly reduced; protein content of bronchoalveolar lavage [3]: reduced the protein content |

The next lines start with results.

| IC50 [1] | IC50 [2] | Molecule | other results |
| --- | --- | --- | --- |
| – | 16 nM | CN1CCN(C(=O)c2ccc(-c3cnc4ccc(NCc5cc(F)ccc5F)nn34)cc2)CC1 [Example 2.1, {4-[6-(2,5-Difluoro-benzylamino)-imidazo[1,2-b]pyridazin-3-yl]-phenyl}-(4-methyl-piperazin-1-yl)-methanone] | – |
| – | 8 nM | O=C(NCCN1CCOCC1)c1ccc(-c2cnc3ccc(NCc4cc(F)ccc4F)nn23)cc1 [Example 2.2, 4-[6(2,5-Difluorobenzylamino)-imidazo[1,2-b]pyridazin-3-yl]-N-(2-morpholin-4-yl-ethyl)benzamide] | – |
| – | 14 nM | CN(C)C1CCN(C(=O)c2ccc(-c3cnc4ccc(NCc5cc(F)ccc5F)nn34)cc2)CC1 [Example 2.3, {4-[6-(2,5-Difluorobenzylamino)-imidazo[1,2-b]pyridazin-3-yl]-phenyl}-(4-dimethylamino-piperidin-1-yl)-methanone] | – |
| – | 20 nM | O=C(c1ccc(-c2cnc3ccc(NCc4cc(F)ccc4F)nn23)cc1)N1CCOCC1 [Example 2.4, {4-[6-(2,5-Difluoro-benzylamino)-imidazo[1,2-b]pyridazin-3-yl]-phenyl}-morpholin-4-yl-methanone] | – |
| – | 21 nM | O=C(NC1CCOCC1)c1cccc(-c2cnc3ccc(NCc4cc(F)ccc4F)nn23)c1 [Example 2.5] | – |
| – | 11 nM | CCN1CCCC1CNC(=O)c1ccc(-c2cnc3ccc(NCc4cc(F)ccc4F)nn23)cc1 (stereo not drawn) [Example 2.6, 4-[6-(2,5-Difluoro-benzylamino)-imidazo[1,2-b]pyridazin-3-yl]-N-(1-ethyl-pyrrolidin-2-ylmethyl)-benzamide] | – |
| – | 13 nM | O=C(NC1CCOCC1)c1ccc(-c2cnc3ccc(NCc4cc(F)ccc4F)nn23)cc1 [Example 2.7, 4-[6-(2,5-Difluorobenzylamino)-imidazo[1,2-b]pyridazin-3-yl]-N-(tetrahydro-pyran-4-yl)-benzamide] | – |
